From US9999222B2, “Herbicidal combination comprising azines” (BASF SE, priority 2014, dated 2018)
Values joined by “and” are separate entries in the source; they are usually repeats but may differ in a detail not shown here. Identical values can stand only once.

How the values were obtained:
SETFA = test: Greenhouse test, pre-emergence treatment; format: in vivo, Setaria faberi; conditions: SETFA, application rate 0.25 kg/ha, scale 0 to 100
From the text: (§1) The culture containers used were plastic flowerpots containing loamy sand with approximately 3.0% of humus as the substrate. The seeds of the test plants were sown separately for each species.
(§2) For the pre-emergence treatment, the active ingredients, which had been suspended or emulsified in water, were applied directly after sowing by means of finely distributing nozzles. The containers were irrigated gently to promote germination and growth and subsequently covered with transparent plastic hoods until the plants had rooted. This cover caused uniform germination of the test plants, unless this had been impaired by the active ingredients.
(§3) Depending on the species, the plants were kept at 10-25° C. or 20-35° C., respectively.
(§4) The test period extended over 2 to 4 weeks. During this time, the plants were tended, and their response to the individual treatments was evaluated.
(§5) Evaluation was carried out using a scale from 0 to 100. 100 means no emergence of the plants, or complete destruction of at least the aerial moieties, and 0 means no damage, or normal course of growth. A moderate herbicidal activity is given at values of at least 60, a good herbicidal activity is given at values of at least 70, and a very good herbicidal activity is given at values of at least 85.
(§6) The respective stated components a and b, and if appropriate, c were formulated as a 10% by weight strength emulsion concentrate and, with addition of the amount of solvent system, introduced into the spray liquor used for applying the active compound.
(§7) In the examples, the solvent used was water.
(§8) In the examples below, using the method of S. R. Colby (1967) “Calculating synergistic and antagonistic responses of herbicide combinations”, Weeds 15, p. 22ff., the value E, which is expected if the activity of the individual active compounds is only additive, was calculated. E=X+Y−(X·Y/100) where • X=percent activity using active compound a at an application rate A; • Y=percent activity using active compound b at an application rate B; • E=expected activity (in %) by a+b at application rates A+B.
(§9) If the value found experimentally is higher than the value E calculated according to Colby, a synergistic effect is present.

ECHCG = test: Greenhouse test, pre-emergence treatment; format: in vivo, Echinocloa crus-galli
From the text: as §1, §2, §3, §4, §5, §6, §7, §8, §9

AMARE [1] = test: Greenhouse test, pre-emergence treatment; format: in vivo, Amaranthus retroflexus; conditions: application rate 0.25 kg/ha, scale 0 to 100
From the text: as §1, §2, §3, §4
Evaluation was carried out using a scale from 0 to 100. […]
In the examples below, using the method of S. R. Colby (1967) “Calculating synergistic and antagonistic responses of herbicide combinations”, Weeds 15, p. 22ff., the value E, which is expected if the activity of the individual active compounds is only additive, was calculated. […]
as §9

PHACA = test: Greenhouse test, pre-emergence treatment; format: in vivo, Phalaris canariensis; conditions: pre-emergence
From the text: as §1, §2, §3, §4, §5, §6, §7, §8, §9

SETVI = test: Greenhouse test, pre-emergence treatment; format: in vivo, Setaria viridis
From the text: as §1, §2, §3, §4, §5, §6, §7, §8, §9

BRADC = test: Greenhouse test, pre-emergence treatment; format: in vivo, Brachiaria decumbens; conditions: pre-emergence
From the text: as §1, §2, §3, §4, §5, §6, §7, §8, §9

KCHSC = test: Greenhouse test, pre-emergence treatment; format: in vivo, Kochia scoparia; conditions: pre-emergence
Outline: (§10)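 Seeds were sown in loamy sand with approximately 3.0% humus, then sprayed at once with actives suspended or emulsified in water. Pots were watered, hooded until rooting, held at 10-25° C. or 20-35° C. by species for 2 to 4 weeks, and scored 0 (no damage) to 100 (no emergence/complete destruction).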

POLCO [2] = test: Greenhouse test, pre-emergence treatment; format: in vivo, Polygonum convolvulus; conditions: pre-emergence; for observed % activity 20 DAT: POLCO
Outline: as §10

AVEFA = test: Greenhouse test, pre-emergence treatment; format: in vivo, Avena fatua; conditions: pre-emergence
From the text: as §1, §2, §3, §4, §5, §6, §7, §8, §9

ELEIN = test: Greenhouse test, pre-emergence treatment; format: in vivo, Eleusine indica
From the text: as §1, §2, §3, §4, §5, §6, §7, §8, §9

LOLMU = test: Greenhouse test, pre-emergence treatment; format: in vivo, Lolium multiflorum; conditions: pre-emergence
From the text: as §1, §2, §3, §4, §5, §6, §7, §8, §9

DIGSA = test: Greenhouse test, pre-emergence treatment; format: in vivo
ALOMY = test: Greenhouse test, pre-emergence treatment; format: in vivo, Alopecurus myosuroides; conditions: pre-emergence
Outline: as §10

POLCO [3] = test: Greenhouse test, post-emergence treatment; format: in vivo, Polygonum convolvulus; conditions: application rate 1.0 kg/ha, scale 0 to 100
From the text: as §1
(§11) For the post-emergence treatment, the test plants were first grown to a height of […], depending on the plant habit, and only then treated with the active ingredients which had been suspended or emulsified in water. For this purpose, the test plants were either sown directly and grown in the same containers, or they were first grown separately as seedlings and transplanted into the test containers a few days prior to treatment.
as §3, §4, §5

AMARE [4] = test: Greenhouse test, post-emergence treatment; format: in vivo, Amaranthus retroflexus; conditions: application rate 1.0 kg/ha, scale 0 to 100
From the text: as §1, §11, §3, §4, §5

ABUTH = test: Greenhouse test, pre-emergence treatment; format: in vivo, Abutilon theophrasti
Outline: as §10

COMBE = test: Greenhouse test, pre-emergence treatment; format: in vivo, Commelina benghalensis; conditions: Commelina benghalensis, pre-emergence, 480 h
Outline: as §10

ANTAR = test: Greenhouse test, pre-emergence treatment; format: in vivo; conditions: Anthemis arvensis, 480 h, 40 g ai/ha, 20 DAT, read-out: observed % activity
Outline: as §10

GALAP = test: Greenhouse test, pre-emergence treatment; format: in vivo, Galium aparine; conditions: Galium aparine, pre-emergence, 480 h
Outline: as §10

IPOHE = test: Greenhouse test, pre-emergence treatment; format: in vivo, Ipomoea hederacea; conditions: Ipomoea hederacea, 480 h, 60 g ai/ha, read-out: observed % activity 20 DAT
Outline: as §10

CENCY = test: Greenhouse test, pre-emergence treatment; format: in vivo; conditions: 480 h, read-out: observed % activity 20 DAT
EPHHL = test: Greenhouse test, pre-emergence treatment; format: in vivo, Euphorbia heterophylla; conditions: Euphorbia heterophylla, pre-emergence, 480 h
Outline: as §10

SIDRH = test: Greenhouse test, pre-emergence treatment; format: in vivo, Sida rhombifolia; conditions: Sida rhombifolia, pre-emergence, 480 h, 40 g ai/ha, 20 DAT; read-out: observed % activity
Outline: as §10

GERPU = test: Greenhouse test, pre-emergence treatment; format: in vivo, Geranium pusillum; conditions: Geranium pusillum, pre-emergence, 480 h
Outline: as §10

[5] = 80 g ai/ha, 20 DAT, read-out: observed % activity
[6] = 60 g ai/ha, read-out: observed % activity 20 DAT
[7] = 40 g ai/ha, 20 DAT, read-out: observed % activity

CC(c1nc(N)nc(Nc2c(F)c(F)cc(F)c2F)n1)C(C)(C)C (stereo not drawn) [Example 7, N4-(2,3,5,6-tetrafluorophenyl)-6-(1,2,2-trimethylpropyl)-1,3,5-triazine-2,4-diamine]
herbicidal activity (SETFA): very good herbicidal activity (a very good herbicidal activity is given at values of at least 85) | herbicidal activity (ECHCG; ECHCG, application rate 0.25 kg/ha, scale 0 to 100): very good herbicidal activity (a very good herbicidal activity is given at values of at least 85) | herbicidal activity (AMARE [1]): very good herbicidal activity (a very good herbicidal activity is given at values of at least 85)

C#CCN1C(=O)C(F)(F)Oc2cc(F)c(-n3c(=O)n(C)c(=S)n(C)c3=O)cc21 [PPO, trifludimoxazin]
observed % activity 20 DAT (PHACA; 18 g ai/ha): 45% | observed % activity 20 DAT (PHACA; 25 g ai/ha): 35% | observed % activity 20 DAT (PHACA; 36 g ai/ha, listed as BAS 850 (PPO)): 70% and 65% | observed % activity 20 DAT (PHACA; use rate 12.5 g ai/ha): 85% | observed % activity 20 DAT (SETVI; 18 g ai/ha): 95% | observed % activity 20 DAT (SETVI; 36 g ai/ha): 90% | observed % activity 20 DAT (BRADC; 25 g ai/ha): 65% | observed % activity 20 DAT (BRADC; 36 g ai/ha): 25% | observed % activity 20 DAT (KCHSC; KCHSC, use rate 12.5 g ai/ha, 20 DAT): 25% | observed % activity 20 DAT (KCHSC; use rate 12.5 g ai/ha): 25% | observed % activity 20 DAT (KCHSC; use rate 25 g ai/ha): 85% | observed % activity 20 DAT (POLCO [2]; use rate 12.5 g ai/ha, 20 DAT): 0% | observed % activity 20 DAT (POLCO [2]; use rate 25 g ai/ha, 20 DAT): 0% | observed % activity 20 DAT (AVEFA; 25 g ai/ha): 0% | observed % activity 20 DAT (AVEFA; 36 g ai/ha): 15% | observed % activity 20 DAT (AVEFA; 50 g ai/ha): 0% | observed % activity 20 DAT (ECHCG; 18 g ai/ha): 0% | observed % activity 20 DAT (ELEIN; 18 g ai/ha): 55% | observed % activity 20 DAT (ELEIN; 36 g ai/ha): 90% | observed % activity 20 DAT (LOLMU; 25 g ai/ha): 0% | observed % activity 20 DAT (LOLMU; 36 g ai/ha): 35% | observed % activity 20 DAT (LOLMU; 50 g ai/ha): 55% | observed % activity 20 DAT (DIGSA; 18 g ai/ha): 85% | observed % activity 20 DAT (DIGSA; 36 g ai/ha): 90% | observed % activity 20 DAT (ALOMY; 25 g ai/ha): 60%

Nc1nc(CC2CC2)nc(Nc2c(F)cc(F)cc2F)n1 [Example 4, 6-(cyclopropylmethyl)-N4-(2,4,6-trifluorophenyl)-1,3,5-triazine-2,4-diamine]
herbicidal activity (POLCO [3]): good herbicidal activity (a good herbicidal activity is given at values of at least 70) | herbicidal activity (AMARE [4]): very good herbicidal activity (a very good herbicidal activity is given at values of at least 85)

CC(C)N(C(=O)SCC(Cl)=C(Cl)Cl)C(C)C [Tri-allate, triallate]
inhibition at 200 g/ha (PHACA; Phalaris canariensis, 480 h, 200 g ai/ha, read-out: observed % activity 20 DAT): 0% | inhibition at 400 g/ha (PHACA; Phalaris canariensis, 480 h, 400 g ai/ha, read-out: observed % activity 20 DAT): 0% | inhibition at 200 g/ha (BRADC; Urochloa decumbens, 480 h, 200 g ai/ha, read-out: observed % activity 20 DAT): 0% | inhibition at 200 g/ha (AVEFA; Avena fatua, 480 h, 200 g ai/ha, read-out: observed % activity 20 DAT): 45% | inhibition at 400 g/ha (AVEFA; Avena fatua, 480 h, 400 g ai/ha, read-out: observed % activity 20 DAT): 75% | inhibition at 400 g/ha (ELEIN; Eleusine indica, 480 h, 400 g ai/ha, read-out: observed % activity 20 DAT): 0% | inhibition at 400 g/ha (DIGSA; Digitaria sanguinalis, 480 h, 400 g ai/ha, read-out: observed % activity 20 DAT): 0% | inhibition at 400 g/ha (ALOMY; Alopecurus myosuroides, 480 h, 400 g ai/ha, read-out: observed % activity 20 DAT): 5%

CCCC(C)c1nc(N)nc(Nc2c(F)c(F)cc(F)c2F)n1 (stereo not drawn) [Example 6, 6-(1-methylbutyl)-N4-(2,3,5,6-tetrafluorophenyl)-1,3,5-triazine-2,4-diamine]
herbicidal activity (SETFA): very good herbicidal activity (a very good herbicidal activity is given at values of at least 85) | herbicidal activity (ABUTH; ABUTH, application rate 0.25 kg/ha, scale 0 to 100): very good herbicidal activity (a very good herbicidal activity is given at values of at least 85) | herbicidal activity (AMARE [1]): very good herbicidal activity (a very good herbicidal activity is given at values of at least 85)

O=C(Nc1ccc(F)cc1F)c1cccnc1Oc1cccc(C(F)(F)F)c1 [diflufenican]
inhibition at 80 g/ha (COMBE; [5]): 55% | inhibition at 60 g/ha (COMBE; [6]): 35% | inhibition at 30 g/ha (ABUTH; Abutilon theophrasti, 480 h, 30 g ai/ha, read-out: observed % activity 20 DAT): 0% | inhibition at 40 g/ha (ABUTH; Abutilon theophrasti, 480 h, 40 g ai/ha, 20 DAT, read-out: observed % activity): 25% | inhibition at 60 g/ha (ABUTH; Abutilon theophrasti, 480 h, 60 g ai/ha, read-out: observed % activity 20 DAT): 0% | inhibition at 80 g/ha (ABUTH; Abutilon theophrasti, 480 h, 80 g ai/ha, 20 DAT, read-out: observed % activity): 50% | inhibition at 40 g/ha (ANTAR): 85% | inhibition at 80 g/ha (GALAP; [5]): 40% | inhibition at 30 g/ha (GALAP; 30 g ai/ha, read-out: observed % activity 20 DAT): 20% | inhibition at 60 g/ha (GALAP; [6]): 25% | inhibition at 60 g/ha (KCHSC; Bassia scoparia, 480 h, 60 g ai/ha, read-out: observed % activity 20 DAT): 80% | inhibition at 40 g/ha (POLCO [2]; Fallopia convolvulus, 480 h, 40 g ai/ha, 20 DAT, read-out: observed % activity): 20% | inhibition at 60 g/ha (POLCO [2]; Fallopia convolvulus, 480 h, 60 g ai/ha, read-out: observed % activity 20 DAT): 60% | inhibition at 60 g/ha (IPOHE): 15% | inhibition at 30 g/ha (CENCY; 30 g ai/ha): 0% | inhibition at 60 g/ha (CENCY; 60 g ai/ha): 0% | inhibition at 40 g/ha (EPHHL; [7]): 20% | inhibition at 60 g/ha (EPHHL; [6]): 15% | inhibition at 40 g/ha (SIDRH): 0% | inhibition at 40 g/ha (GERPU; [7]): 40% | inhibition at 80 g/ha (GERPU; [5]): 50% | inhibition at 60 g/ha (GERPU; [6]): 60%
